Source: the supplement of paper PMC4932681

How the values were obtained:
Experiment in all cases: viability inhibition at highest dose (% inhibition); higher = more growth inhibition
BT-474 Tam1 = settings: 4-OH-tamoxifen in medium 1 µM; 72 h
Outline: (§1)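 Breast cancer cell lines and their resistant derivatives were seeded into 384-well plates containing library drugs at five concentrations across a 10 000-fold range, with resistant lines kept in medium with 1 μM of the selecting drug. After 72 h at 37 °C, CellTiter-Glo viability was read on a PHERAstar and normalised to vehicle-only and positive controls. Logistic dose–response fits in the Breeze pipeline gave drug sensitivity score, relative IC50 (curve midpoint) and top-dose inhibition.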

ZR-75-1 = settings: 72 h
Outline: as §1

BT-474 Tam2 = settings: 4-OH-tamoxifen in medium 1 µM; 72 h
Outline: as §1

ZR-75-1 Tam2 = settings: 4-OH-tamoxifen in medium 1 µM; 72 h
Outline: as §1

T-47D Tam1 = settings: 4-OH-tamoxifen in medium 1 µM; 72 h
Outline: as §1

ZR-75-1 Tam1 = settings: 4-OH-tamoxifen in medium 1 µM; 72 h
Outline: as §1

T-47D Tam2 = settings: 4-OH-tamoxifen in medium 1 µM; 72 h
Outline: as §1

MCF-7 = settings: 72 h
Outline: as §1

T-47D = settings: 72 h
Outline: as §1

MCF-7 Tam1 = settings: 4-OH-tamoxifen in medium 1 µM; 72 h
Outline: as §1

BT-474 = settings: 72 h
Outline: as §1

| Compound | viability inhibition at highest dose (BT-474 Tam1) | viability inhibition at highest dose (ZR-75-1; 4-OH-tamoxifen in medium 0 µM) | viability inhibition at highest dose (ZR-75-1; 4-OH-tamoxifen in medium 1 µM) | viability inhibition at highest dose (BT-474 Tam2) | viability inhibition at highest dose (ZR-75-1 Tam2) | viability inhibition at highest dose (T-47D Tam1) | viability inhibition at highest dose (ZR-75-1 Tam1) | viability inhibition at highest dose (T-47D Tam2) | viability inhibition at highest dose (MCF-7; 4-OH-tamoxifen in medium 0 µM) | viability inhibition at highest dose (MCF-7; 4-OH-tamoxifen in medium 1 µM) | viability inhibition at highest dose (T-47D; 4-OH-tamoxifen in medium 0 µM) | viability inhibition at highest dose (T-47D; 4-OH-tamoxifen in medium 1 µM) | viability inhibition at highest dose (MCF-7 Tam1) | viability inhibition at highest dose (BT-474; 4-OH-tamoxifen in medium 0 µM) | viability inhibition at highest dose (BT-474; 4-OH-tamoxifen in medium 1 µM) |
| --- | --- | --- | --- | --- | --- | --- | --- | --- | --- | --- | --- | --- | --- | --- | --- |
| CC(C)(C#N)c1cc(Cn2cncn2)cc(C(C)(C)C#N)c1 [Anastrozole] (drug 10000 nM) | -0.566 | -9.38 | -3.76 | -3.02 | -10.2 | -5.37 | -5.43 | 2.94 | -4.15 | -2.23 | -9.21 | -3.66 | -5.71 | -8.01 | -8.68 |
| Cc1cc(Nc2nc(N[C@@H](C)c3ncc(F)cn3)ncc2Cl)[nH]n1 [AZD1480] (drug 1000 nM) | 3.08 | -6.08 | -11.4 | -2.54 | -3.72 | 2.99 | -2.1 | 3.94 | 13.1 | 6.46 | -12.1 | -7.24 | 1.6 | -2.51 | 8 |
| CNCc1ccc(-c2[nH]c3cc(F)cc4c3c2CCNC4=O)cc1 (drug 10000 nM) | 2.87 | -4.71 | -4.07 | -16.6 | 0.703 | 1.19 | -4.62 | 6.84 | 6.6 | 1.15 | -7.27 | -9.52 | -2.56 | -3.44 | -1.93 |
| COc1c2occc2cc2ccc(=O)oc12 [Methoxsalen] (drug 10000 nM) | 10.8 | -8.57 | 1.74 | 1.89 | -6.82 | -4.99 | 2.54 | 7.26 | -6.63 | 1.6 | -17.2 | -5.34 | -6.39 | -4.57 | 7.92 |
| Cc1cccc(-c2nn3c(c2-c2ccnc4ccc(C(N)=O)cc24)CCC3)n1 (drug 1000 nM) | -3.5 | -10.5 | -14.4 | -0.548 | 0.591 | 8.11 | -1.45 | -11.8 | -2 | 17.5 | -10.5 | -3.66 | -5.09 | -8.01 | -14 |
| O=C(CCCCCCC(=O)Nc1ccc([C@H]2O[C@@H](CSc3nc(-c4ccccc4)c(-c4ccccc4)o3)C[C@@H](c3ccc(CO)cc3)O2)cc1)NO [Tubacin] (drug 10000 nM) | 21.5 | 18.1 | 24.4 | 33.8 | 19.2 | 45.1 | 32.9 | 39.4 | 55.1 | 67.2 | 57.8 | 90.2 | 22.1 | 28.3 | 84.7 |
| COc1ncc(-c2ccc3nccc(-c4ccnnc4)c3c2)cc1NS(=O)(=O)c1ccc(F)cc1F (drug 1000 nM) | 98.5 | 76.9 | 72.3 | 98 | 86.4 | 69.3 | 83 | 78 | 68.6 | 85 | 71.6 | 77.9 | 60.1 | 90 | 97.1 |
| Nc1nc(Cl)nc2c1ncn2[C@H]1C[C@H](O)[C@@H](CO)O1 [Cladribine] (drug 1000 nM) | -9.7 | 15.2 | 15.8 | -11.6 | 20 | 25.8 | 21 | 11.4 | -15.2 | 6.39 | -1.69 | -2.3 | -0.292 | -15.8 | -9.47 |
| N[C@@H](CSC(c1ccccc1)(c1ccccc1)c1ccccc1)C(=O)O [S-trityl-L-cysteine] (drug 40000 nM) | 23.3 | 9.84 | 13 | -5.53 | 3.17 | 4.09 | 4.16 | 4.25 | 0.988 | 18.1 | 2.31 | 4.34 | -5.14 | -1.05 | 23.9 |
| COc1ccc(S(=O)(=O)Nc2cccnc2Nc2ccc(O)cc2)cc1 [ABT-751] (drug 10000 nM) | 64.7 | 36.3 | 14.9 | 54.2 | 18.6 | 58.6 | 4.33 | 38.3 | 50.3 | 44.6 | -0.891 | 2.69 | 1.63 | 42.6 | 73.1 |
| C[C@@]1(C(=O)Nc2ccc(F)nc2)CCCN1c1nc(Nc2cc(C3CC3)n[nH]2)c2cccn2n1 (drug 10000 nM) | 15.1 | -26.3 | -1.41 | 6.42 | -9.78 | 46.5 | -16.4 | 59.2 | 67.7 | 81.4 | 48.6 | 41.9 | 68.9 | 13 | 23.1 |
| Nc1ccccc1NC(=O)c1ccc(CNc2nccc(-c3cccnc3)n2)cc1 [Mocetotinostat (MGCD0103)] (drug 10000 nM) | 95.4 | 32.8 | 23.3 | 83.4 | 31 | 52.9 | 27.6 | 41.7 | 80.1 | 62.7 | 81.2 | 73.8 | 15.4 | 65.7 | 94.3 |
| CC(=O)Nc1cccc(-n2c(=O)n(C3CC3)c(=O)c3c(Nc4ccc(I)cc4F)n(C)c(=O)c(C)c32)c1 (drug 250 nM) | 8.35 | -3.05 | 5.16 | -15.8 | 1.99 | 12.5 | 2.29 | 26.5 | 2.23 | 17.3 | -2.33 | 10.4 | 10.6 | -8.37 | 18.2 |
| O=c1[nH]c(=O)n([C@H]2C[C@H](O)[C@@H](CO)O2)cc1F [Floxuridine] (drug 10000 nM) | 12.3 | 22.7 | 12.6 | 3.04 | 18.5 | 59 | 8.75 | 21.3 | 21 | 1.8 | 22.3 | 7.89 | 5.39 | 30.5 | 27.9 |
| COc1ccc(-c2cc3c(C)nc(N)nc3n([C@H]3CC[C@H](OCCO)CC3)c2=O)cn1 (drug 10000 nM) | 100 | 83.5 | 76.1 | 94.3 | 88.1 | 92.6 | 86.8 | 88.2 | 79.9 | 82.6 | 94.6 | 93.7 | 67.1 | 96.1 | 100 |
| C=C(c1ccc(C(=O)O)cc1)c1cc2c(cc1C)C(C)(C)CCC2(C)C [Bexarotene] (drug 10000 nM) | -1.85 | 15.4 | 8.83 | 0.869 | 9.24 | 25.9 | -2.13 | 9.65 | -1.91 | 5.85 | 13.7 | 14.2 | 19.2 | 1.74 | 20.9 |
| NCCCNCCSP(=O)(O)O [Amifostine] (drug 10000 nM) | -0.954 | -8.06 | -7.66 | -1.33 | -10.8 | -2.35 | 1.78 | 7 | -14.2 | -5.03 | -8.52 | -1.52 | -11.7 | -2.99 | 1.56 |
| CN(Cc1cnc2nc(N)nc(N)c2n1)c1ccc(C(=O)N[C@@H](CCC(=O)O)C(=O)O)cc1 [Methotrexate] (drug 10000 nM) | -17.3 | 22.8 | 2.09 | 2.17 | 10.5 | -0.232 | 15.9 | 6.27 | 18.8 | 29.1 | -7.44 | -4.13 | 14.2 | -11.3 | -21.2 |
| C[C@]1(c2nc3c(C(N)=O)cccc3[nH]2)CCCN1 [Veliparib  (ABT-888)] (drug 10000 nM) | 6.83 | -8.51 | 2.27 | -7.23 | 6.18 | 2.73 | 2.16 | 6.94 | 8.41 | -2.66 | -14.2 | -15.3 | -2.94 | -7.48 | 9.81 |
| Nc1ncn([C@@H]2O[C@H](CO)[C@@H](O)[C@H]2O)c(=O)n1 [Azacitidine] (drug 10000 nM) | 1.3 | 11.2 | 0.709 | 17.2 | 7.49 | 23.6 | 11.9 | 21 | 31.9 | -0.966 | 16.3 | -5.14 | 1.85 | 11.1 | 12.4 |
| COc1ccc(C2=N[C@@H](c3ccc(Cl)cc3)[C@@H](c3ccc(Cl)cc3)N2C(=O)N2CCNC(=O)C2)c(OC(C)C)c1 [Nutlin-3] (drug 10000 nM) | 33.4 | 36 | 29.7 | 29.7 | 42.8 | 15.8 | 31.8 | 20.4 | 28.5 | 45.2 | 1.78 | 1.4 | 16.7 | -7.59 | 11.2 |
| COc1cccc2c1C(=O)c1c(O)c3c(c(O)c1C2=O)C[C@@](O)(C(=O)CO)C[C@@H]3O[C@H]1C[C@H](N)[C@H](O)[C@H](C)O1 [Doxorubicin] (drug 1000 nM) | 68.5 | 62.2 | 82.4 | 16.9 | 73.5 | 77.1 | 76.4 | 72.7 | 76.9 | 66.1 | 73 | 76.2 | 56.6 | 65 | 90.4 |
| COc1cc(OC2CCN(C)CC2)ccc1Nc1ncc2c(n1)n(C1CCCC1)c(=O)n2C [AZ 3146] (drug 10000 nM) | 74.5 | 20.8 | 22.9 | 25.9 | 24 | 20.1 | 19.6 | 26.5 | 24.5 | 15 | 27.1 | 14.1 | 11.7 | 9.21 | 77.2 |
